Legend:
Babesia gibsoni = tested on: Babesia gibsoni; parameters: method as in PMID 18771856; details: B. gibsoni; ref [40]; cited from earlier work
[1] = tested on: T. brucei 427 bloodstream form; experiment: Reactive oxygen species determination (H2DCFDA, flow cytometry); assay type: cell-based, Trypanosoma brucei; details: twice the EC50 value (0.12 μM), 24 h
Protocol: T. brucei 427 bloodstream form’s cellular ROS production was assessed using H2DCFDA (Sigma-Aldrich). Cells were preincubated for 24 h with 0.12 μM mitoDFO, and approximately 1 × 10^6 cells were incubated with 10 μM H2DCFDA for 30 min and washed with PBS with 6 mM glucose, and 10 000 events were measured on a Guava EasyCyte 8HT flow cytometer (Luminex) using a 488 excitation laser and a 525/30 detector. Median fluorescence was plotted against untreated culture using Prism 8.0 (GraphPad Software), and statistical significance was determined using a two-tailed paired t-test. The experiment was performed in three biologically independent replicates.

[2] = tested on: T. brucei 427 bloodstream form; experiment: Mitochondrial membrane potential (TMRE, flow cytometry); assay type: cell-based, Trypanosoma brucei; parameters: dose or concentration left out as unconfirmed; details: 0.12, 0.3, and mitoDFO for 24 h
Protocol: T. brucei 427 bloodstream form’s mitochondrial membrane potential was assessed using the fluorescent probe TMRE (Thermo Fisher Scientific). […] Approximately 1 × 10^6 cells were incubated with 60 nM TMRE for 30 min and washed with PBS with 6 mM glucose, and 10 000 events were measured on a Guava EasyCyte 8HT flow cytometer (Luminex) using a 488 excitation laser and a 583/26 detector. Median fluorescence was plotted against untreated culture using Prism 8.0 (GraphPad Software), and statistical significance was determined using RM one-way ANOVA with Geisser-Greenhouse correction. The experiment was performed in three biologically independent replicates.

Candida albicans = experiment: C. albicans hyphae formation (phase contrast microscopy); assay type: cell-based; details: 3.6 and 7.2 μM mitoDFO for 24 h
Protocol: The yeast form of C. albicans was seeded in the 2 mL RPMI medium on a 24 well plate with a glass bottom and treated with MitoDFO in concentrations of 0, 3.6, and 7.2 μM. The culture was incubated at 35 °C for 24 h, and microscopic images were taken using phase contrast on an inverted microscope Eclipse TI-S (Nikon).

Cryptococcus neoformans = experiment: C. neoformans capsule size (India ink microscopy); assay type: cell-based; details: 20 μM mitoDFO for 24 h; 31 cells
Protocol: C. neoformans capsule thickness was measured using a previously published protocol.[33] Briefly, the yeast was seeded in 1 mL of RPMI in a 24 well plate with and without a final concentration of 20 μM mitoDFO for 24 h at 35 °C. The culture was harvested (1300 g, 5 min, RT) and resuspended in 50 μL of RPMI. An equal amount of India Ink (Thermo-Fisher) was added, and a total volume of 15 μL of resuspended cells was placed on a microscope slide, covered with cover glass, and imaged on an Eclipse TI-S (Nikon) inverted microscope using 100× magnification. A total of 31 cells were randomly selected, excluding morphologically anomalous and overlapping cells. Using NIS Elements BR (Nikon), the inner and outer diameters of each cell were measured, and cell size and capsule thickness were calculated. Graphs were plotted, and an unpaired t-test was performed using Prism 8.0 (GraphPad Software).

Human fibroblast BJ1 = tested on: Human fibroblast BJ1; parameters: method as in C. Sandoval-Acuña et al.[25]; details: ref C. Sandoval-Acuña et al.[25], read-out: control EC50; cited from earlier work

Row | Structure (SMILES) | EC50 (Babesia gibsoni) | increase in the presence of ROS compared to the culture without treatment [1] | mitochondrial membrane potential [2] | hyphal growth of Candida albicans culture (Candida albicans) | capsule thickness (Cryptococcus neoformans) | overall cell size (Cryptococcus neoformans) | EC50 (Human fibroblast BJ1)
1 | CC(=O)N(O)CCCCCNC(=O)CCC(=O)N(O)CCCCCNC(=O)CCC(=O)N(O)CCCCCN [DFO, Deferoxamine, reference compound] | 6.45 ± 3.43 µM |  |  |  |  |  | 
2 | CC(=O)N(O)CCCCCNC(=O)CCC(=O)N(O)CCCCCNC(=O)CCC(=O)N(O)CCCCCN(CCCCCCCCCC[P+](c1ccccc1)(c1ccccc1)c1ccccc1)CCCCCCCCCC[P+](c1ccccc1)(c1ccccc1)c1ccccc1 [mitoDFO] |  | approximately 3.5 fold | rapidly reduced in a dose-dependent manner | absence of hyphal growth | increases significantly | remains the same | 7.9 ± 3.9 µM
